Common to all, as to experiment: relative viability (nuclei count vs DMSO), 5 days (fraction); higher = more cells survive
Compound in the assay “RAF265 + Alpelisib”: Cn1c(Nc2ccc(C(F)(F)F)cc2)nc2cc(Oc3ccnc(-c4ncc(C(F)(F)F)[nH]4)c3)ccc21 [RAF265] + Cc1nc(NC(=O)N2CCC[C@H]2C(N)=O)sc1-c1ccnc(C(C)(C)C(F)(F)F)c1 [Alpelisib] (partner 2 µM)
In short, it runs like this: (§1)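 Relative viability equals treated-well nuclei counts divided by vehicle-well nuclei counts. Counts came from 4× images of lung cancer cell lines grown in 1536-well plates for 5 days after pin-tool dosing on the day after seeding. Dosing used one drug alone or a fixed anchor-drug dose plus five library-drug doses (not always all listed) in √10 steps, and values are medians of duplicate plates.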

Compound in the assay “RAF265 + Foretinib”: Cn1c(Nc2ccc(C(F)(F)F)cc2)nc2cc(Oc3ccnc(-c4ncc(C(F)(F)F)[nH]4)c3)ccc21 [RAF265] + COc1cc2c(Oc3ccc(NC(=O)C4(C(=O)Nc5ccc(F)cc5)CC4)cc3F)ccnc2cc1OCCCN1CCOCC1 [Foretinib] (partner 0.25 µM)
The method, boiled down: as §1

Compound in the assay “Doramapimod + Lapatinib”: Cc1ccc(-n2nc(C(C)(C)C)cc2NC(=O)Nc2ccc(OCCN3CCOCC3)c3ccccc23)cc1 [Doramapimod] + CS(=O)(=O)CCNCc1ccc(-c2ccc3ncnc(Nc4ccc(OCc5cccc(F)c5)c(Cl)c4)c3c2)o1 [Lapatinib] (partner 2 µM)
The method, boiled down:
as §1

Compound in the assay “IPA-3 + Luminespib”: C1=CC=C2C(=C1)C=CC(=C2SSC3=C(C=CC4=CC=CC=C43)O)O [IPA-3] + CCNC(=O)c1noc(-c2cc(C(C)C)c(O)cc2O)c1-c1ccc(CN2CCOCC2)cc1 [Luminespib] (partner 0.01 µM)
The method, boiled down:
as §1

Take UMC-11: the relative viability in the assay with RAF265 + Alpelisib (first compound 0.01 µM) came out at 0.972; with RAF265 + Alpelisib (first compound 0.03162 µM), 0.981; in the assay with RAF265 + Alpelisib (first compound 0.1 µM), 0.969; with RAF265 + Alpelisib (first compound 0.3162 µM), 1.14; in the assay with RAF265 + Alpelisib (first compound 1 µM) it was 0.937; with RAF265 + Foretinib (first compound 0.01 µM), 1.02. In addition, the relative viability in the assay with RAF265 + Foretinib (first compound 0.03162 µM) turned out to be 1.05; in the assay with RAF265 + Foretinib (first compound 0.1 µM), 0.972; in the assay with RAF265 + Foretinib (first compound 0.3162 µM), 0.992; in the assay with RAF265 + Foretinib (first compound 1 µM), 0.926; in the assay with Doramapimod + Lapatinib (first compound 0.02 µM) it was 1.09; with Doramapimod + Lapatinib (first compound 0.06325 µM) it was 0.957. Moreover, the relative viability was found to be 0.901 with Doramapimod + Lapatinib (first compound 0.2 µM); 0.743 with Doramapimod + Lapatinib (first compound 0.6325 µM); 0.654 in the assay with Doramapimod + Lapatinib (first compound 2 µM); 1.12 with IPA-3 + Luminespib (first compound 0.2 µM); 0.94 with IPA-3 + Luminespib (first compound 0.6325 µM); 1.05 with IPA-3 + Luminespib (first compound 2 µM). Besides, the relative viability with IPA-3 + Luminespib (first compound 6.325 µM) came to 1.06; with IPA-3 + Luminespib (first compound 20 µM), 1.53.

These data come from the supplement of paper PMC10307832.
